Here are results for twelve compounds from US8809376B2, “Indanyloxydihydrobenzofuranylacetic acids” (Boehringer Ingelheim International GmbH, priority 2012, dated 2014).

In general, EC50 refers to the midpoint of the concentration-response curve. Higher therefore signals a need for much substance.

The target of this assay is human GPR40 receptor (Homo sapiens, UniProt O14842). The experiment in a line: Assay I: IP1 accumulation (IPOne assay system) in 1321N1 cells stably expressing human GPR40 receptor. Type of assay: cell-based. The following applies: stimulated 1 hour at 37° C., 10% CO2, LiCl 50 mM. As for the experimental part: IP1 accumulation measurements using the IPOne assay system—1321N1 cells stably expressing human GPR40 receptor (Euroscreen, Belgium) are seeded 24 h before the assay in black clear-bottom collagen-coated 384-well plates in culture medium containing 10% FCS, 1% Na-Pyruvate and 400 μg/mL G418. IP1 is assayed according to the Manufacturer's description (Cisbio Bioassays, France). In brief, the assay is started by substitution of the culture medium by stimulation buffer (Hepes 10 mM, CaCl2 1 mM, MgCl2 0.5 mM, KCl 4.2 mM, NaCl 146 mM and glucose 5.5 mM, pH 7.4) without LiCl. Cells are stimulated for 1 hour at 37° C., 10% CO2 by addition of the compounds that are diluted in stimulation buffer containing LiCl yielding a final LiCl concentration of 50 mM. Assays are stopped by adding HTRF-conjugates (IP1-d2 and Anti-IP1 cryptate Tb) and lysis buffer, provided by the manufacturer. After an incubation time of 1 hour at room temperature plates are measured using an EnVision™, Perkin Elmer. The obtained fluorescence ratios at 665/615 nM are then used to calculate the pEC50 values using GraphPad Prism 5 (Graphpad Software Inc, USA) by interpolation using an IP1 reference curve and subsequent sigmoidal curve fitting allowing for a variable hill slope.
Chain of human GPR40 receptor (O14842 whole entry): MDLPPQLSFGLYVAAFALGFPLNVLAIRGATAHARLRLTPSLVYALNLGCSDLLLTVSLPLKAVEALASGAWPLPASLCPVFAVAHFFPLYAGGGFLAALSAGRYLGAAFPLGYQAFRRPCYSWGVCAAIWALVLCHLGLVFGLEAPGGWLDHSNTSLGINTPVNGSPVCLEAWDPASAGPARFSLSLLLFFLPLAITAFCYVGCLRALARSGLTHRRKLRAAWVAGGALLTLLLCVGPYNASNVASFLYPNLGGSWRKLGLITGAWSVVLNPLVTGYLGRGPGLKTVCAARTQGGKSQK
`O=C(O)C[C@@H]1COc2cc(O[C@@H]3CCc4c(Cc5ccccc5)ccc(F)c43)ccc21` [Example 16, {(S)-6-[(R)-4-Benzyl-7-fluoro-indan-1-yloxy]-2,3-dihydrobenzofuran-3-yl}-acetic acid] displayed an EC50 of 5 nM.
The figure for `COc1cccc(Cc2c(C#N)ccc3c2CC[C@H]3Oc2ccc3c(c2)OC[C@H]3CC(=O)O)c1` [Example 3, {(S)-6-[(R)-5-Cyano-4-(3-methoxy-benzyl)-indan-1-yloxy]-2,3-dihydro-benzofuran-3-yl}-acetic acid] is 24 nM; for `COc1ccc(Cc2c(C#N)ccc3c2CC[C@H]3Oc2ccc3c(c2)OC[C@H]3CC(=O)O)cc1` [Example 4, {(S)-6-[(R)-5-Cyano-4-(4-methoxy-benzyl)-indan-1-yloxy]-2,3-dihydro-benzofuran-3-yl}-acetic acid] it is 5 nM; for `Cc1cccc(C)c1Cc1c(C#N)ccc2c1CC[C@H]2Oc1ccc2c(c1)OC[C@H]2CC(=O)O` [Example 5, {(S)-6-[(R)-5-Cyano-4-(2,6-dimethyl-benzyl)-indan-1-yloxy]-2,3-dihydro-benzofuran-3-yl}-acetic acid] it is 6 nM.
The figure for `CS(=O)(=O)c1ccc(Cc2c(C#N)ccc3c2CC[C@H]3Oc2ccc3c(c2)OC[C@H]3CC(=O)O)cc1` [Example 8, {(S)-6-[(R)-5-Cyano-4-(4-methylsulfonyl-benzyl)-indan-1-yloxy]-2,3-dihydro-benzofuran-3-yl}-acetic acid] is 325 nM; for `CSc1ccc(Cc2c(C#N)ccc3c2CC[C@H]3Oc2ccc3c(c2)OC[C@H]3CC(=O)O)cc1` [Example 7, {(S)-6-[(R)-5-Cyano-4-(4-methylsulfanyl-benzyl)-indan-1-yloxy]-2,3-dihydro-benzofuran-3-yl}-acetic acid] it is 18 nM.
To `N#Cc1ccc2c(c1Cc1ccccc1)CC[C@H]2Oc1ccc2c(c1)OC[C@H]2CC(=O)O` [Example 1, {(S)-6-[(R)-4-Benzyl-5-cyano-indan-1-yloxy]-2,3-dihydro-benzofuran-3-yl}-acetic acid] belongs 5 nM.
Compound `COc1ccc(Cc2ccc(F)c3c2CC[C@H]3Oc2ccc3c(c2)OC[C@H]3CC(=O)O)cc1` [Example 13, {(S)-6-[(R)-7-Fluoro-4-(4-methoxybenzyl)-indan-1-yloxy]-2,3-dihydrobenzofuran-3-yl}acetic acid] registered an EC50 of 5 nM.
Turning to `N#Cc1ccc2c(c1Cc1ccc(Cl)nc1)CC[C@H]2Oc1ccc2c(c1)OC[C@H]2CC(=O)O` [Example 2, {(S)-6-[(R)-4-(6-Chloro-pyridin-3-ylmethyl)-5-cyano-indan-1-yloxy]-2,3-dihydro-benzofuran-3-yl}-acetic acid], a half-maximal response (EC50) required 36 nM.
To `COc1cccc(Cc2ccc(F)c3c2CC[C@H]3Oc2ccc3c(c2)OC[C@H]3CC(=O)O)c1` [Example 14, {(S)-6-[(R)-7-Fluoro-4-(3-methoxybenzyl)-indan-1-yloxy]-2,3-dihydrobenzofuran-3-yl}-acetic acid] belongs 4 nM; to `N#Cc1ccc2c(c1Cc1ccc(O)cc1)CC[C@H]2Oc1ccc2c(c1)OC[C@H]2CC(=O)O` [Example 11, {(S)-6-[(R)-5-Cyano-4-(4-hydroxy-benzyl)-indan-1-yloxy]-2,3-dihydro-benzofuran-3-yl}-acetic acid], 12 nM; to `O=C(O)C[C@@H]1COc2cc(O[C@@H]3CCc4c(Cc5ccc(Cl)nc5)ccc(F)c43)ccc21` [Example 15], 35 nM.
